Experimental data published in US12478617B2, “Lipidated peptide inhibitors of interleukin-23 receptor” (JANSSEN BIOTECH, INC., priority 2021, dated 2025).
pIC50: −log10 of the molar value. Starred links: 1 amine or outer side, 2 acyl side, 3 side chain; linkers in the order of their positions; H or OH if unused. Positions of bridges follow the written chain, without caps; N, C: chain ends. Non-standard residues stand in square brackets, D forms with d. Residues, ends and D or L forms follow the SMILES beside them. Groups on a side chain read outwards from the residue. *: point of attachment. εLys(α-Octadecanedioyl) = O=C(O)CCCCCCCCCCCCCCCCC(=O)N[C@@H](CCCCN*)C(=O)O; X5 = O=C(O)CCCCCCCCCCCCCCCCC(=O)N[C@@H](CCN*)C(=O)O; Trp(7-Me) = Cc1cccc2c(C[C@H](N)C(=O)O)c[nH]c12; C18 diacid = O=C(O)CCCCCCCCCCCCCCCCC(=O)*; C16 diacid = O=C(O)CCCCCCCCCCCCCCC(=O)*; γGlu = O=C(O)[C@H](CCC(=O)[*:2])N[*:1]; 2Nal = N[C@@H](Cc1ccc2ccccc2c1)C(=O)O; AEF = NCCOc1ccc(C[C@H](N)C(=O)O)cc1; Stearoyl = CCCCCCCCCCCCCCCCCC(=O)*; Palmitoyl = CCCCCCCCCCCCCCCC(=O)*; 3Pal = N[C@@H](Cc1cccnc1)C(=O)O; Pen = CC(C)(S)[C@H](N)C(=O)O; Thp = NC1(C(=O)O)CCOCC1; AEEA = NCCOCCOCC(=O)O; Sar = CNCC(=O)O

The molecules below were run against T1, IL-23R (Homo sapiens, UniProt Q5VWK5) (assay: IL23R Reporter Assay).
T1 construct: HEK293 cells containing IL-23R, IL-12RP31 and a firefly luciferase reporter gene driven by a STAT-inducible promoter (Promega); host or cells: HEK293
T1 sequence (Q5VWK5 24-629): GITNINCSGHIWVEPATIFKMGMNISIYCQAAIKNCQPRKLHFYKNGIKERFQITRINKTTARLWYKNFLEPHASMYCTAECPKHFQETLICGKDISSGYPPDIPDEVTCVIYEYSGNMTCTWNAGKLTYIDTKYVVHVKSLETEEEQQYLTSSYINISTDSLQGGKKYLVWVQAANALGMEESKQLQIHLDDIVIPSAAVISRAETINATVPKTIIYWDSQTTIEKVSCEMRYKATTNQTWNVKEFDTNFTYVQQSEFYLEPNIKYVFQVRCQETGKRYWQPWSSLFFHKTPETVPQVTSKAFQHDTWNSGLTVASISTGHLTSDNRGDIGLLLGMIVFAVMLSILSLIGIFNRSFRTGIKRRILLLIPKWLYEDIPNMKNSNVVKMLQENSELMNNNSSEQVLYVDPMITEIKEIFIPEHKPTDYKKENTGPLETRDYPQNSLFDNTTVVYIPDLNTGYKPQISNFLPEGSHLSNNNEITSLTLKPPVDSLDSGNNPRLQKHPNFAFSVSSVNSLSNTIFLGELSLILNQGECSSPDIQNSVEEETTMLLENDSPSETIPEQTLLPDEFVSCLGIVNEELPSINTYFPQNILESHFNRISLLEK
Type: cell-based
Summary of the method: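 Reporter cells read out IL-23-driven STAT3 activation; compounds were serially diluted in DMSO. After 5 h at 37 °C, 5% CO2, cells were brought to 20 °C and luminescence was measured with BioGlo reagent.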

SMILES	pIC50
CCCCCCCCCCCCCCCC(=O)N[C@@H](CCC(=O)NCCCC[C@@H]1NC(=O)[C@@H](NC(=O)[C@@H](CCCNC(=N)N)NC(C)=O)C(C)(C)SSC(C)(C)[C@@H](C(=O)N[C@@H](Cc2ccc(OCCN)cc2)C(=O)N[C@@H](Cc2ccc3ccccc3c2)C(=O)NC2(C(=O)N[C@@H](CCCCNC(C)=O)C(=O)N[C@@H](CC(N)=O)C(=O)N[C@@H](Cc3cccnc3)C(=O)N(C)CC(N)=O)CCOCC2)NC(=O)[C@H](CCCCNC(C)=O)NC(=O)[C@H](Cc2c[nH]c3c(C)cccc23)NC(=O)[C@H]([C@@H](C)O)NC1=O)C(=O)O [Example 69, MeCO-r-Pen*-K(gEC16)-T-7MeW-K(Ac)-Pen*-AEF-2Nal-THP-K(Ac)-N-3Pya-Sar-CONH2] (Ac-[dR][Pen]K([γGlu-Palmitoyl])T[Trp(7-Me)]K(Ac)[Pen][AEF][2Nal][Thp]K(Ac)N[3Pal][Sar]-NH2; disulfide 2-7)	9.89
CC(=O)NCCCC[C@@H]1NC(=O)[C@H](Cc2c[nH]c3c(C)cccc23)NC(=O)[C@H]([C@@H](C)O)NC(=O)[C@H](CC(N)=O)NC(=O)[C@@H](NC(=O)[C@@H](CCCNC(=N)N)NC(C)=O)C(C)(C)SSC(C)(C)[C@@H](C(=O)N[C@@H](Cc2ccc(OCCNC(=O)COCCOCCNC(=O)COCCOCCNC(=O)CC[C@H](NC(=O)CCCCCCCCCCCCCCC(=O)O)C(=O)O)cc2)C(=O)N[C@@H](Cc2ccc3ccccc3c2)C(=O)NC2(C(=O)N[C@@H](CCCCNC(C)=O)C(=O)N[C@@H](CC(N)=O)C(=O)N[C@@H](Cc3cccnc3)C(=O)N(C)CC(N)=O)CCOCC2)NC1=O [Example 26, MeCO-r-Pen*-N-T-7MeW-K(Ac)-Pen*-AEF(PEG2PEG2gEC16OH)-2Nal-THP-K(Ac)-N-3Pya-Sar-CONH2] (Ac-[dR][Pen]NT[Trp(7-Me)]K(Ac)[Pen][AEF]([AEEA-AEEA-γGlu-C16 diacid])[2Nal][Thp]K(Ac)N[3Pal][Sar]-NH2; disulfide 2-7)	10.60
CC(=O)NCCCC[C@@H]1NC(=O)[C@H](Cc2c[nH]c3c(C)cccc23)NC(=O)[C@H]([C@@H](C)O)NC(=O)[C@H](CC(N)=O)NC(=O)[C@@H](NC(C)=O)C(C)(C)SSC(C)(C)[C@@H](C(=O)N[C@@H](Cc2ccc(OCCN)cc2)C(=O)N[C@@H](Cc2ccc3ccccc3c2)C(=O)NC2(C(=O)N[C@@H](CCCCNC(C)=O)C(=O)N[C@@H](CC(N)=O)C(=O)N[C@@H](Cc3cccnc3)C(=O)N(C)CC(=O)NCCOCCOCC(=O)NCCOCCOCC(=O)NCCCC[C@H](NC(=O)CCCCCCCCCCCCCCCCC(=O)O)C(=O)O)CCOCC2)NC1=O [Example 46, MeCO-Pen*-N-T-7MeW-K(Ac)-Pen*-AEF-2Nal-THP-K(Ac)-N-3Pya-Sar-PEG2PEG2eKC18OH-COOH] (Ac-[Pen]NT[Trp(7-Me)]K(Ac)[Pen][AEF][2Nal][Thp]K(Ac)N[3Pal][Sar][AEEA][AEEA]-{εLys(α-Octadecanedioyl)}; disulfide 1-6)	9.59
CC(=O)NCCCC[C@H](NC(=O)C1(NC(=O)[C@H](Cc2ccc3ccccc3c2)NC(=O)[C@H](Cc2ccc(OCCN)cc2)NC(=O)[C@H]2NC(=O)[C@H](CCCCNC(=O)COCCOCCNC(=O)COCCOCCNC(=O)CC[C@H](NC(=O)CCCCCCCCCCCCCCCCC(=O)O)C(=O)O)NC(=O)[C@H](Cc3c[nH]c4c(C)cccc34)NC(=O)[C@H]([C@@H](C)O)NC(=O)[C@H](CC(N)=O)NC(=O)[C@@H](NC(=O)[C@@H](CCCNC(=N)N)NC(C)=O)C(C)(C)SSC2(C)C)CCOCC1)C(=O)N[C@@H](CC(N)=O)C(=O)N[C@@H](Cc1cccnc1)C(=O)N(C)CC(N)=O [Example 88, MeCO-r-Pen*-N-T-7MeW-K(PEG2PEG2gEC18OH)-Pen*-AEF-2Nal-THP-K(Ac)-N-3Pya-Sar-CONH2] (Ac-[dR][Pen]NT[Trp(7-Me)]K([AEEA-AEEA-γGlu-C18 diacid])[Pen][AEF][2Nal][Thp]K(Ac)N[3Pal][Sar]-NH2; disulfide 2-7)	9.70
CC(=O)NCCCC[C@@H]1NC(=O)[C@H](Cc2c[nH]c3c(C)cccc23)NC(=O)[C@H]([C@@H](C)O)NC(=O)[C@H](CC(N)=O)NC(=O)[C@@H](NC(C)=O)C(C)(C)SSC(C)(C)[C@@H](C(=O)N[C@@H](Cc2ccc(OCCN)cc2)C(=O)N[C@@H](Cc2ccc3ccccc3c2)C(=O)NC2(C(=O)N[C@@H](CCCCNC(=O)COCCOCCNC(=O)COCCOCCNC(=O)CCCCCCCCCCCCCCCCC(=O)O)C(=O)N[C@@H](CC(N)=O)C(=O)N[C@@H](Cc3cccnc3)C(=O)N(C)CC(N)=O)CCOCC2)NC1=O [Example 41, MeCO-Pen*-N-T-7MeW-K(Ac)-Pen*-AEF-2Nal-THP-K(PEG2PEG2C18OH)-N-3Pya-Sar-CONH2] (Ac-[Pen]NT[Trp(7-Me)]K(Ac)[Pen][AEF][2Nal][Thp]K([AEEA-AEEA-C18 diacid])N[3Pal][Sar]-NH2; disulfide 1-6)	10.11
CCCCCCCCCCCCCCCCCC(=O)N[C@@H](CCC(=O)NCCCC[C@@H](NC(C)=O)C(=O)N[C@@H]1C(=O)N[C@@H](CC(N)=O)C(=O)N[C@@H]([C@@H](C)O)C(=O)N[C@@H](Cc2c[nH]c3c(C)cccc23)C(=O)N[C@@H](CCCCNC(C)=O)C(=O)N[C@H](C(=O)N[C@@H](Cc2ccc(OCCN)cc2)C(=O)N[C@@H](Cc2ccc3ccccc3c2)C(=O)NC2(C(=O)N[C@@H](CCCCNC(C)=O)C(=O)N[C@@H](CC(N)=O)C(=O)N[C@@H](Cc3cccnc3)C(=O)N(C)CC(N)=O)CCOCC2)C(C)(C)SSC1(C)C)C(=O)O [Example 68, MeCO-k(gEC18)-Pen*-N-T-7MeW-K(Ac)-Pen*-AEF-2Nal-THP-K(Ac)-N-3Pya-Sar-CONH2] (Ac-[dK]([γGlu-Stearoyl])[Pen]NT[Trp(7-Me)]K(Ac)[Pen][AEF][2Nal][Thp]K(Ac)N[3Pal][Sar]-NH2; disulfide 2-7)	10.43
CC(=O)NCCCC[C@@H]1NC(=O)[C@H](Cc2c[nH]c3c(C)cccc23)NC(=O)[C@H]([C@@H](C)O)NC(=O)[C@H](CC(N)=O)NC(=O)[C@@H](NC(=O)[C@@H](CCCNC(=N)N)NC(C)=O)C(C)(C)SSC(C)(C)[C@@H](C(=O)N[C@@H](Cc2ccc(OCCN)cc2)C(=O)N[C@@H](Cc2ccc3ccccc3c2)C(=O)NC2(C(=O)N[C@@H](CCCCNC(C)=O)C(=O)N[C@@H](CC(N)=O)C(=O)N[C@@H](Cc3cccnc3)C(=O)N(C)CC(=O)NCCOCCOCC(=O)NCCOCCOCC(=O)NCC[C@H](NC(=O)CCCCCCCCCCCCCCCCC(=O)O)C(=O)O)CCOCC2)NC1=O [Example 129, MeCO-r-Pen*-N-T-7MeW-K(Ac)-Pen*-AEF-2Nal-THP-K(Ac)-N-3Pya-Sar-PEG2PEG2gDabC18OH-COOH] (Ac-[dR][Pen]NT[Trp(7-Me)]K(Ac)[Pen][AEF][2Nal][Thp]K(Ac)N[3Pal][Sar][AEEA][AEEA]-X5; disulfide 2-7)	9.62

Second part, the molecule after the results:

pIC50	SMILES
10.05	CC(=O)NCCCC[C@@H]1NC(=O)[C@H](Cc2c[nH]c3c(C)cccc23)NC(=O)[C@H]([C@@H](C)O)NC(=O)[C@H](CC(N)=O)NC(=O)[C@@H](NC(C)=O)C(C)(C)SSC(C)(C)[C@@H](C(=O)N[C@@H](Cc2ccc(OCCN)cc2)C(=O)N[C@@H](Cc2ccc3ccccc3c2)C(=O)NC2(C(=O)N[C@@H](CCCCNC(=O)COCCOCCNC(=O)COCCOCCNC(=O)[C@@H]3CCCN3C(=O)[C@@H]3CCCN3C(=O)[C@@H]3CCCN3C(=O)CC[C@H](NC(=O)CCCCCCCCCCCCCCCCC(=O)O)C(=O)O)C(=O)N[C@@H](CC(N)=O)C(=O)N[C@@H](Cc3cccnc3)C(=O)N(C)CC(N)=O)CCOCC2)NC1=O [Example 107, MeCO-Pen*-N-T-7MeW-K(Ac)-Pen*-AEF-2Nal-THP-K(PEG2PEG2PPPgEC18OH)-N-3Pya-Sar-CONH2]
10.19	CC(=O)NCCCC[C@@H]1NC(=O)[C@H](Cc2c[nH]c3c(C)cccc23)NC(=O)[C@H]([C@@H](C)O)NC(=O)[C@H](CC(N)=O)NC(=O)[C@@H](NC(C)=O)C(C)(C)SSC(C)(C)[C@@H](C(=O)N[C@@H](Cc2ccc(OCCN)cc2)C(=O)N[C@@H](Cc2ccc3ccccc3c2)C(=O)NC2(C(=O)N[C@@H](CCCCNC(=O)COCCOCCNC(=O)CC[C@H](NC(=O)CCCCCCCCCCCCCCC(=O)O)C(=O)O)C(=O)N[C@@H](CC(N)=O)C(=O)N[C@@H](Cc3cccnc3)C(=O)N(C)CC(N)=O)CCOCC2)NC1=O [Example 34, MeCO-Pen*-N-T-7MeW-K(Ac)-Pen*-AEF-2Nal-THP-K(PEG2gEC16OH)-N-3Pya-Sar-CONH2] (Ac-[Pen]NT[Trp(7-Me)]K(Ac)[Pen][AEF][2Nal][Thp]K([AEEA-γGlu-C16 diacid])N[3Pal][Sar]-NH2; disulfide 1-6)
10.02	CC(=O)NCCCC[C@@H]1NC(=O)[C@H](Cc2c[nH]c3c(C)cccc23)NC(=O)[C@H]([C@@H](C)O)NC(=O)[C@H](CCCCNC(=O)COCCOCCNC(=O)COCCOCCNC(=O)[C@@H]2CCCN2C(=O)[C@@H]2CCCN2C(=O)[C@@H]2CCCN2C(=O)CC[C@H](NC(=O)CCCCCCCCCCCCCCCCC(=O)O)C(=O)O)NC(=O)[C@@H](NC(=O)[C@@H](CCCNC(=N)N)NC(C)=O)C(C)(C)SSC(C)(C)[C@@H](C(=O)N[C@@H](Cc2ccc(OCCN)cc2)C(=O)N[C@@H](Cc2ccc3ccccc3c2)C(=O)NC2(C(=O)N[C@@H](CCCCNC(C)=O)C(=O)N[C@@H](CC(N)=O)C(=O)N[C@@H](Cc3cccnc3)C(=O)N(C)CC(N)=O)CCOCC2)NC1=O [Example 99, MeCO-r-Pen*-K(PEG2PEG2PPPgEC18OH)-T-7MeW-K(Ac)-Pen*-AEF-2Nal-THP-K(Ac)-N-3Pya-Sar-CONH2] (Ac-[dR][Pen]K([AEEA-AEEA-Pro-Pro-Pro-γGlu-C18 diacid])T[Trp(7-Me)]K(Ac)[Pen][AEF][2Nal][Thp]K(Ac)N[3Pal][Sar]-NH2; disulfide 2-7)
